{"source": "patent US20030175824A1", "about": "“Drug candidate screening systems based on micropatterned hydrogels and microfluidic systems” (priority 2002, published 2003)", "system": "murine 3T3 fibroblasts", "conditions": "0.05% sodium azide in PBS; cells stained red", "method": "Hydrogel microstructures encapsulating murine 3T3 fibroblasts were fabricated using proximity photolithography. A PEG-diacrylate (PEG-DA, MW 575, Sigma-Aldrich or MW 4000, Polysciences) precursor solution containing 0.5% (w/w) DAROCUR 1173 (1-phenyl-2-hydroxy-2-methyl-1-propanone, Ciba Specialty Chemicals) as a photoinitiator was mixed with a cell suspension in cell culture media to produce a cell density about 4 to 5×10^6 cells/mL in the gel precursor solution. Fibroblasts were cultured on tissue culture polystyrene in Dulbecco's modified Eagle media (DMEM with 4.5 g/L glucose and 10% FBS, Sigma-Aldrich) and incubated at 37° C. in 5% CO2 and 95% air until near confluence. Cells were detached from culture flasks by trypsinization with 0.25% trypsin and 0.13% EDTA in phosphate buffered saline. Cells were transferred back to cell culture media and then added to the gel precursor solution. […]\nThe viability of individual cells in hydrogel microstructures with diameters of 600 μm and 50 μm was investigated using Live/Dead Viability/Cytotoxicity fluorescence assay (Molecular Probes, Inc.) that stains live cells green and dead cells red. […]\nThe viability of cells encapsulated in hydrogel was also measured using an MTT (3(4,5-dimethylthiazol-2-yl)-2,5-diphenyl tetrazolium bromide) assay.", "data": [{"smiles": "[N-]=[N+]=[N-]", "note": "[sodium azide]", "values": [{"measurement": "effect on encapsulated cells (control, LIVE/DEAD staining)", "result": "killed the cells"}]}]}
